The source of these data is US20260347372A1, “SMALL MOLECULE INHIBITORS OF KRAS G12D MUTANT” (MERCK SHARP & DOHME LLC, priority 2023, published 2026).

Test [1] addresses KRAS G12C (Homo sapiens, UniProt P01116, C118S/C51S/C80L/G12C). As to the kind of experiment: SOS-catalyzed nucleotide exchange assay, KRAS G12C (Procedure A). Type of test: biochemical. As to conditions: GNE. The source says:
(§1) Procedure for SOS-Catalyzed Nucleotide Exchange Assay for KRAS-WT, G12C/D/V, G13D, HRAS, and NRAS (Procedure A)
(§2) Recombinant KRAS-G12C protein used in this assay has an additional triple mutation (C51S/C80L/C118S). Whereas KRAS-WT, G12D/V, G13D, HRAS and NRAS are in context of their WT protein sequence background. Specifically, the SOS-catalyzed nucleotide exchange assay utilizes a preformed TR-FRET complex containing a specific biotinylated RAS protein (KRAS-WT, G12C/V/D, G13D, HRAS, NRAS; described above) with Bodipy-GDP, and Terbium-streptavidin. Compounds are preincubated with this complex for 60 minutes. Subsequently, recombinant human SOS protein and unlabeled GTP are added to initiate the exchange reaction. Small molecule inhibitors stabilize the Bodipy-GDP complex whereas the untreated protein rapidly exchanges Bodipy-GDP for unlabeled GTP resulting in reduced TR-FRET signal.
(§3) To assemble the preformed TR-FRET complexes, each biotinylated RAS protein is diluted to 2 μM in an EDTA Buffer (20 mM HEPES pH 7.5, 50 mM sodium chloride, 10 mM EDTA, and 0.01% Tween) and incubated at room temperature for one hour. This mixture is then further diluted to 90 nM in an Assay Buffer (20 mM HEPES pH 7.5, 150 mM sodium chloride, 10 mM magnesium chloride, and 0.005% Tween) containing 15 nM of Terbium-Streptavidin (Invitrogen, catalog #PV3577) and 900 nM of Bodipy-GDP (Invitrogen, catalog #G22360) and incubated at room temperature for six hours. It should be noted that this preformed TR-FRET complex for each of the RAS protein were made ahead of time, aliquoted and stored at −80° C. until the day of the experiment.
(§4) Each test compound (10 mM stock in DMSO) is diluted in DMSO to make a final-10-point, 3-fold dilution and is acoustically dispensed into a 384-well assay plate (Corning, catalog #3820) using an Echo 550 (Labcyte). Each well of the assay plate receives 3 μL of a specific 3×RAS preformed TR-FRET complex and 3 μL of Assay Buffer and is incubated at room temperature for 60 minutes (preincubation time). Each well then receives 3 μL of 3× recombinant human SOS protein and GTP (Sigma, G8877) in Assay Buffer and is incubated at room temperature for 30 minutes (G13D), 60 minutes (KRAS WT/G12C/D, H/NRAS) or 90 minutes for G12V. The final reaction in each well of 9 μL consists of 3 mM GTP, specific Ras and SOS proteins in the following concentrations: KRAS-G12C/SOS=3 nM/40 nM, KRAS-WT and G12D/SOS=1 nM/40 nM, KRAS-G12V/SOS=1.25 nM/160 nM, KRAS-G13D/SOS=1.25 nM/0 nM, HRAS and NRAS=1.25 nM/40 nM.
(§5) The time-resolved fluorescence resonance energy transfer (TR-FRET) signal is measured on an Envision (PerkinElmer) plate reader: Excitation filter=340 nm; emission1=495 nm; emission2=520 nm; dichroic mirror=D400/D505; delay time=[…]. The signal of each well is determined as the ratio of the emission at 520 nm to that at 495 nm. Percent effect of each well is determined after normalization to control wells containing DMSO (no effect) or a saturating concentration of inhibitor (max effect). The apparent effect as a function of compound concentration is fit to a four-parameter logistic equation.
(§6) For Example No. 14, nucleotide exchange assays for KRAS G12D, WT, G12C, and G12V were performed according to Procedure B. All the other compounds were tested according to Procedure A.

The target of test [2] is KRAS G13D (Homo sapiens, UniProt P01116, G13D). As to the kind of experiment: SOS-catalyzed nucleotide exchange assay, KRAS G13D (Procedure A). It is filed as biochemical. As to conditions: GNE.
Description: as §1, §2, §3, §4, §5, §6

Test [3] addresses NRAS (Homo sapiens, UniProt P01111). As to the kind of experiment: SOS-catalyzed nucleotide exchange assay, NRAS (Procedure A). Type of test: biochemical. As to conditions: GNE.
Description: as §1, §2, §3, §4, §5, §6

In test [4] the target is KRAS WT (Homo sapiens, UniProt P01116). As to the kind of experiment: SOS-catalyzed nucleotide exchange assay, KRAS WT (Procedure A). Type of test: biochemical. As to conditions: GNE. An outline of the steps: (§7)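 Compounds were preincubated 60 min with a biotinylated RAS·Bodipy-GDP/Tb-streptavidin TR-FRET complex, and exchange was started with human SOS plus 3 mM GTP at RT. RAS/SOS: G12C 3 nM/40 nM, WT and G12D 1 nM/40 nM, all 60 min; G13D 1.25 nM/0 nM, 30 min. 520/495 ratio normalized to DMSO and saturating inhibitor, four-parameter fit.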

In test [5] the target is KRAS G12V (Homo sapiens, UniProt P01116, G12V). As to the kind of experiment: SOS-catalyzed nucleotide exchange assay, KRAS G12V (Procedure A). It is filed as biochemical. The following applies: GNE. An outline of the steps: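 Biotinylated KRAS G12V was loaded with Bodipy-GDP alongside Terbium-streptavidin to form a TR-FRET complex, which was preincubated with compounds for 60 minutes in 384-well plates. Human SOS protein and unlabeled GTP were then added for 90 minutes, giving final concentrations of 1.25 nM KRAS-G12V, 160 nM SOS and 3 mM GTP. The 520/495 nm emission ratio was read on an Envision.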

Test [6] has as its target KRAS G12D (Homo sapiens, UniProt P01116, G12D). As to the kind of experiment: SOS-catalyzed nucleotide exchange assay, KRAS G12D (Procedure A). The following applies: guanine nucleotide exchange (GNE). It is filed as biochemical. An outline of the steps: as §7
The target in test [7] is HRAS (Homo sapiens, UniProt P01112). As to the kind of experiment: SOS-catalyzed nucleotide exchange assay, HRAS (Procedure A). The following applies: GNE. Type of test: biochemical.
Description: as §1, §2, §3, §4, §5, §6

Test [8] has as its target T1, AsPC-1 cells (Homo sapiens, UniProt P01116, G12D).
T1 construct: p-ERK/total ERK AlphaSureFire read-out
As to the kind of experiment: Cellular phospho-ERK assay, AsPC-1 cells (KRAS G12D). Type of test: cell-based. The following applies: 2 hours, read-out: AsPC1 pERK IC50. Put shortly:
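PANC08.13 or AsPC-1 cells (homozygous KRAS G12D) were seeded overnight, then treated for 2 h at 37 °C with a 10-point 1:3 titration from 30 μM. Lysates were assayed by AlphaLISA SureFire for p-ERK and total ERK. IC50 came from a 4-parameter fit of the p-ERK/total ERK ratio.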

Chain of KRAS G13D (P01116 with tags, fused parts or gaps isoform P01116-2 G13D): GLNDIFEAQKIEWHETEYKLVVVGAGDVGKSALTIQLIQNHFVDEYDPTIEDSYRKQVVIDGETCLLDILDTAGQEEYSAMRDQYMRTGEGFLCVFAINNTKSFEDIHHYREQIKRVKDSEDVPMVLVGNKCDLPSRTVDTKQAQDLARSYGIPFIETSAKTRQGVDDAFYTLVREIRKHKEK
Chain of KRAS G12V (P01116 with tags, fused parts or gaps isoform P01116-2 G12V): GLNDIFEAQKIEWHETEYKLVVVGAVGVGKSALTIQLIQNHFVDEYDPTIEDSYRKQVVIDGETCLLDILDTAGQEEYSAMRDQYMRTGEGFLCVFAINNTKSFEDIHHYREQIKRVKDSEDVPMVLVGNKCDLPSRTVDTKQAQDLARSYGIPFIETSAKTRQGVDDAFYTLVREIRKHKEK
Chain of HRAS (P01112 with tags, fused parts or gaps): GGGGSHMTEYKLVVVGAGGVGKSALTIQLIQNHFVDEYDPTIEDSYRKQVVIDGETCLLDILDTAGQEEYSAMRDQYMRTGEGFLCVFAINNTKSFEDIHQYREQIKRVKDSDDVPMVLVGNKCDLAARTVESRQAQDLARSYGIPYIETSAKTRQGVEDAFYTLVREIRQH
Chain of KRAS G12D (P01116 with tags, fused parts or gaps isoform P01116-2 G12D): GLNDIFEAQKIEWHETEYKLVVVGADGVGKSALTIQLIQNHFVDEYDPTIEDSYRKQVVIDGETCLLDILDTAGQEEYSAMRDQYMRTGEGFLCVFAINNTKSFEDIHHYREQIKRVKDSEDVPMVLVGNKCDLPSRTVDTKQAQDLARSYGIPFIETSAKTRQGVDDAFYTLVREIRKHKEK
Chain of NRAS (P01111 with tags, fused parts or gaps): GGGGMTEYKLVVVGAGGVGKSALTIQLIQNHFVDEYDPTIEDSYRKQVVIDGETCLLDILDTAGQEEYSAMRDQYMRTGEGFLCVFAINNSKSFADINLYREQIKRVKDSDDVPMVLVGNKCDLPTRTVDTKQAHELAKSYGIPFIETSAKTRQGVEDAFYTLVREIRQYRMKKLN
Chain of KRAS G12C (P01116 with tags, fused parts or gaps isoform P01116-2 G12C/C51S/C80L/C118S): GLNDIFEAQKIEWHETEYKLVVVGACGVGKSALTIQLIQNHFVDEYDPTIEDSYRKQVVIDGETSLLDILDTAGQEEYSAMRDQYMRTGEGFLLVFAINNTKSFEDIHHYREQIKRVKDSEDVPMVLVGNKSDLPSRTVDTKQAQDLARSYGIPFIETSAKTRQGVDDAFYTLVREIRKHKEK
Chain of KRAS WT (P01116 with tags, fused parts or gaps isoform P01116-2): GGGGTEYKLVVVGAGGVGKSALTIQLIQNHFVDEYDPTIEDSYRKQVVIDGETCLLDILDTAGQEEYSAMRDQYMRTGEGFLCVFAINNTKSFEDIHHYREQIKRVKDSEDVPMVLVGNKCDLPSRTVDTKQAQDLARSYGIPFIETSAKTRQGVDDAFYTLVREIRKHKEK
T1 sequence (P01116 1-188 isoform P01116-2 G12D): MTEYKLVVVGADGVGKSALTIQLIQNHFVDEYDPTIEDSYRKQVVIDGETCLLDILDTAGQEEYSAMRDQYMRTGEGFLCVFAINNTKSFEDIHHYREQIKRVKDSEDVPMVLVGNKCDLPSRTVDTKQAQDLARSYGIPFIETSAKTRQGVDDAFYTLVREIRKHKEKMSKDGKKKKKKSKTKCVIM

Take `Clc1cc2[nH]ncc2c(-c2nccc3c2sc2nc(OCC45CCOC(CO4)C5)nc(N4C[C@H]5CC[C@@H](C4)N5)c23)c1C1CC1` [Ex-22, 2-((2,6-dioxabicy-clo[3.2.1]octan-5-yl)methoxy)-4-((1R,5S)-3,8-diazabicy-clo[3.2.1]octan-3-yl)-8-(6-chloro-5-cyclopropyl-1H-indazol-4-yl)pyrido [4′,3′:4,5]thi-eno[2,3-d]pyrimidine]: the IC50 (commonly the concentration that gives 50% inhibition) is > 11.1 µM in test [1]; 9.11 µM in test [2]; > 11.1 µM in test [3]; > 11.1 µM in test [4]; > 11.1 µM in test [5]; 2.73 µM in test [6]. Moreover, the IC50 in test [7] was > 11.1 µM; in test [8], 10 µM.
As to `Cc1cc2[nH]ncc2c(-c2nccc3c2sc2nc(OC[C@@]45CCCN4C[C@H](F)C5)nc(N4[C@@H]5CC[C@H]4CNC5)c23)c1C(F)(F)F` [Ex-71, 4-((1R,5S)-3,8-diazabicyclo[3.2.1]octan-8-yl)-2-(((2R,7aS)-2-fluorotetrahydro-1H-pyrrolizin-7a(5H)-yl)methoxy)-8-(6-methyl-5-(trifluoromethyl)-1H-indazol-4-yl)pyrido[4′,3′:4,5]thieno[2,3-d]pyrimidine], the IC50 is 1.1 µM in test [1]; 2.51 µM in test [2]; > 11.1 µM in test [3]; 8.09 µM in test [4]; 5.16 µM in test [5]; 0.0348 µM in test [6]. Further, the IC50 is > 11.1 µM in test [7] and 0.885 µM in test [8].
In the case of `Cc1cc2[nH]ncc2c(-c2nccc3c2sc2nc(OC[C@@]45CCCN4C[C@H](F)C5)nc(N4C5CNCC4C5)c23)c1C(F)(F)F` [Ex-68, 4-(3,6-diazabicyclo[3.1.1]heptan-6-yl)-2-(((2R,7aS)-2-fluorotetrahydro-1H-pyrrolizin-7a(5H)-yl)methoxy)-8-(6-methyl-5-(trifluoromethyl)-1H-indazol-4-yl)pyrido[4′,3′:4,5]thieno[2,3-d]pyrimidine], the IC50 in test [1] was 1.85 µM; in test [2], 3.05 µM; in test [3], > 11.1 µM; in test [4], 6.6 µM; in test [5] it was 1.36 µM; in test [6], 0.267 µM. The IC50 in test [7] was > 11.1 µM; in test [8] it was 11.1 µM.
Consider `Cc1cc2[nH]ncc2c(-c2nccc3c2sc2nc(OCC4CCS(=O)(=O)CC4)nc(N4C[C@H]5CC[C@@H](C4)N5)c23)c1C(F)(F)F` [Ex-36, 4-(((4-((1R,5S)-3,8-diazabicyclo[3.2.1]octan-3-yl)-8-(6-methy1-5-(trifluoromethyl)-1H-indazol-4-yl)pyrido[4′,3′:4,5]thieno[2,3-d]pyrimidin-2-yl)oxy)methyl)tetrahydro-2H-thiopyran 1,1-dioxide], for which the IC50 in test [1] was > 11.1 µM; in test [2], > 11.1 µM; in test [3], > 11.1 µM; in test [4], > 11.1 µM; in test [5], > 11.1 µM; in test [6], 4.12 µM. The IC50 in test [7] is > 11.1 µM; in test [8], 28.4 µM.
For `Cc1cc2[nH]ncc2c(-c2nccc3c2sc2nc(OC[C@@]45CCCN4C[C@H](F)C5)nc(N4[C@@H]5CC[C@H]4CN(C)C5)c23)c1C(F)(F)F` [Ex-73, 2-(((2R,7aS)-2-fluorotetrahydro-1H-pyrrolizin-7a(5H)-yl)methoxy)-8-(6-methyl-5-(trifluoromethyl)-1H-indazol-4-yl)-4-((1R,5S)-3-methyl-3,8-diazabicyclo[3.2.1]octan-8-yl)pyrido[4′,3′:4,5]thieno[2,3-d]pyrimidine], the IC50 in test [1] was > 11.1 µM; in test [2], > 11.1 µM; in test [3], > 11.1 µM; in test [4], > 11.1 µM; in test [5], > 11.1 µM; in test [6] it was 1.39 µM. Also, the IC50 is > 11.1 µM in test [7] and 4.79 µM in test [8].
Turning to `CC12CC(COc3nc(N4C[C@H]5CC[C@@H](C4)N5)c4c(n3)sc3c(-c5c(C6CC6)c(Cl)cc6[nH]ncc56)nccc34)(CO1)C2` [Ex-23, 4-((1R,5S)-3,8-diazabicy-clo[3.2.1]octan-3-yl)-8-(6-chloro-5-cyclopropyl-1H-indazol-4-yl)-2-(((1R,4r)-1-methyl-2-oxabicy-clo[2.1.1]hex-an-4-yl)methoxy)pyri-do[4′,3′:4,5]thi-eno[2,3-d]pyrimi-dine], the IC50 in test [1] is > 11.1 µM; in test [2], > 11.1 µM; in test [3], > 11.1 µM; in test [4], > 11.1 µM; in test [5], > 11.1 µM; in test [6], 1.97 µM. Besides, the results for the IC50 in test [7] and in test [8] were > 11.1 µM and 8.11 µM, respectively.
Take `C#Cc1cccc2cc3[nH]ncc3c(-c3nccc4c3sc3nc(OC[C@@]56CCCN5C[C@H](F)C6)nc(N5C[C@H]6CC[C@@H](C5)N6)c34)c12` [Ex-55, 4-((1R,5S)-3,8-diazabicyclo[3.2.1]octan-3-yl)-8-(5-ethynyl-1H-benzo[f]indazol-4-yl)-2-(((2R,7aS)-2-fluorotetrahydro-1H-pyrrolizin-7a(5H)-yl)methoxy)pyrido[4′,3′:4,5]thieno[2,3-d]pyrimidine]: the IC50 in test [1] was 0.0739 µM; in test [2], 0.0425 µM; in test [3] it was > 11.1 µM; in test [4], 0.148 µM; in test [5], 0.105 µM; in test [6], 0.00131 µM. For the same molecule, the values for the IC50 in test [7] and in test [8] were > 11.1 µM and 0.025 µM, respectively.
`Cc1cc2[nH]ncc2c(-c2nccc3c2sc2nc(OCC4(C#N)CCOCC4)nc(N4C[C@H]5CC[C@@H](C4)N5)c23)c1C(F)(F)F` [Ex-38, 4-(((4-((1R,5S)-3,8-diazabicyclo[3.2.1]octan-3-yl)-8-(6-methyl-5-(trifluoromethyl)-1H-indazol-4-yl)pyrido[4′,3′:4,5]thieno[2,3-d]pyrimidin-2-yl)oxy)methyl)tetrahydro-2H-pyran-4-carbonitrile]: the concentration for half-maximal inhibition (IC50) in test [1] was > 11.1 µM; in test [2] it was 3.55 µM; in test [3], > 11.1 µM; in test [4], > 11.1 µM; in test [5], > 11.1 µM; in test [6], 3.79 µM. In addition, the figures for the IC50 in test [7] and in test [8] were > 11.1 µM and > 30 µM, respectively.
